According to patent publication EP4722207A1, “OXOISOINDOLINYL-SUBSTITUTED TETRAHYDROPYRIMIDINEDIONE DERIVATIVE AND USE THEREOF” (Gluetacs Therapeutics (Shanghai) Co., Ltd., priority 2023, dated 2024):

What was measured:
Type in all cases: cell-based
Settings in all cases: 24 hours of compound treatment, 50 nM and 500 nM
[1] = biological target: T1, WEE1 (Homo sapiens, UniProt P30291+Q96SW2); experiment: Western-blot assay, substrate protein degradation in hPBMCs: WEE1
T1 construct: effects of the compounds of the present disclosure on the expression of target proteins in cells; endogenous in cells; host or cells: human PBMCs (hPBMCs)
T1 sequence (P30291 whole entry): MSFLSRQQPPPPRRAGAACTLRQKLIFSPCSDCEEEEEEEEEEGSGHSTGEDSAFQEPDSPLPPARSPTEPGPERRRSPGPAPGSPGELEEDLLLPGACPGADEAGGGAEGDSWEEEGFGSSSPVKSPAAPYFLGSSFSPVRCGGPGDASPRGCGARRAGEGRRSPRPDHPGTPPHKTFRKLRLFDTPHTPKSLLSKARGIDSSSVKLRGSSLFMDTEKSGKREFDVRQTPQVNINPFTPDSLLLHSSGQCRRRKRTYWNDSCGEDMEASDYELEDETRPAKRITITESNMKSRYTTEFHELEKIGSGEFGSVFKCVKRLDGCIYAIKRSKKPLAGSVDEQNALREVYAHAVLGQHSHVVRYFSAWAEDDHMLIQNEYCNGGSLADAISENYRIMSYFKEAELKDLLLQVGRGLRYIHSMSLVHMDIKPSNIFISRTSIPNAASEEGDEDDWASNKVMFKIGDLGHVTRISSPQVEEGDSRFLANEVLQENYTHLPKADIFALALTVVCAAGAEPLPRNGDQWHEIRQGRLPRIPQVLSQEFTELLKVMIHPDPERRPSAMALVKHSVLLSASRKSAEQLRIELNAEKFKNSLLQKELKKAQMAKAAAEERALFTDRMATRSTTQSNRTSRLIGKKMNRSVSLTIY
T1 sequence (Q96SW2 whole entry): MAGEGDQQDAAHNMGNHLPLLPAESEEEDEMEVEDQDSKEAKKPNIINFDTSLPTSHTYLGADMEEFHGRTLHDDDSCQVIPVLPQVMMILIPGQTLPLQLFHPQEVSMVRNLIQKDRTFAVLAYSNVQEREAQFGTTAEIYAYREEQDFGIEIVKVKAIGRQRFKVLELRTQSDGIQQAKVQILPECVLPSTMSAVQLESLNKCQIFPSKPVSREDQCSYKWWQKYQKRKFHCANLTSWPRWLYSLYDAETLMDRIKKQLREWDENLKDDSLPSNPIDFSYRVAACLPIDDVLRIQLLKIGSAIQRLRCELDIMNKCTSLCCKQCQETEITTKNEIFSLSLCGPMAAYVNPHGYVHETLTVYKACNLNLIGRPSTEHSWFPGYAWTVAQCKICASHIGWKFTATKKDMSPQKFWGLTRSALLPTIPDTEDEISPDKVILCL
T1 sequence (Q16531 whole entry partner): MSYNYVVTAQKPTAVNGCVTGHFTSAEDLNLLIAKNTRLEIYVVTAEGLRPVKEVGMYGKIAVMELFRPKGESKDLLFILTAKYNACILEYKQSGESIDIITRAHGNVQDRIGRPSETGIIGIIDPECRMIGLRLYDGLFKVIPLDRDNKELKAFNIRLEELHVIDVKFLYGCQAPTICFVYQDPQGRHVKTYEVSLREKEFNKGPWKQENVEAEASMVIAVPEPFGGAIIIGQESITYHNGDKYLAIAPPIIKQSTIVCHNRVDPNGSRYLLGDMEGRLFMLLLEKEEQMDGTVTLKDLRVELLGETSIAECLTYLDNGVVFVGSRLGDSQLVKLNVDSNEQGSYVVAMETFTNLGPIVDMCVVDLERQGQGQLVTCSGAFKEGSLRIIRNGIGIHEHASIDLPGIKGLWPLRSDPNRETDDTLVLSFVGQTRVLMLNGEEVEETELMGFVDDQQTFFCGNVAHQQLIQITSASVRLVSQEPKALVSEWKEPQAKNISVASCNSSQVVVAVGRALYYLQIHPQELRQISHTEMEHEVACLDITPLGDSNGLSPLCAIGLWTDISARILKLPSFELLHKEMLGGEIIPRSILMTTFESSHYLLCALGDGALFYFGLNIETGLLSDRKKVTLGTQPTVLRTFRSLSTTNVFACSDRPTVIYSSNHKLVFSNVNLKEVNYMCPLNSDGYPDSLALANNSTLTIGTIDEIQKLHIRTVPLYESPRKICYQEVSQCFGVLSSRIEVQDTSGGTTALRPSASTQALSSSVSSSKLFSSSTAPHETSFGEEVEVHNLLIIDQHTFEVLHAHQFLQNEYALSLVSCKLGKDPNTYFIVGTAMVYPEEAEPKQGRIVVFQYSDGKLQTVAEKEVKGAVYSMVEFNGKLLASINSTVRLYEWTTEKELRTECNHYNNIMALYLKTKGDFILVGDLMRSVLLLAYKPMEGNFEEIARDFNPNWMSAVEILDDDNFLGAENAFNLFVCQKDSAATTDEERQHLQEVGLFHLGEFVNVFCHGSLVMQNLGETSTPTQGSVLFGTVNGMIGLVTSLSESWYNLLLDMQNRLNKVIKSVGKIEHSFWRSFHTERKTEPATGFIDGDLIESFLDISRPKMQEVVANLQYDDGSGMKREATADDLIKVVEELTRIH

[2] = biological target: T2, IKZF1 (Homo sapiens, UniProt Q13422+Q96SW2); experiment: Western-blot assay, substrate protein degradation in hPBMCs: IKZF1
T2 construct: effects of the compounds of the present disclosure on the expression of target proteins in cells; endogenous in cells; host or cells: human PBMCs (hPBMCs)
T2 sequence (Q13422 whole entry): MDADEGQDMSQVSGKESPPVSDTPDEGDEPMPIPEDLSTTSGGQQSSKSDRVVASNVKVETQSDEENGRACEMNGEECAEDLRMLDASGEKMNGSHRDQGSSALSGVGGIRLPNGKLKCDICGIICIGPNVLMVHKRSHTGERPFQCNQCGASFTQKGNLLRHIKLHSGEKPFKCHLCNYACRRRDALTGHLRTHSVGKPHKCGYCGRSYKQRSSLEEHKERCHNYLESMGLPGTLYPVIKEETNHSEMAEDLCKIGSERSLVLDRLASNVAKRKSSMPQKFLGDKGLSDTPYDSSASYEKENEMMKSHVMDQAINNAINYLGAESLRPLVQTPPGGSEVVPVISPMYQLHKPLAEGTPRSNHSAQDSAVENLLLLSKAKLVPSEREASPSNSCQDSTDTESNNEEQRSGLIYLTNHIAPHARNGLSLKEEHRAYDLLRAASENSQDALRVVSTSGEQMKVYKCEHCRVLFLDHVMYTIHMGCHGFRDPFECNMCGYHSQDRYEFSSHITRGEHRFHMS
T2 sequence (Q96SW2 whole entry): as the sequence (Q96SW2 whole entry) above
T2 sequence (Q16531 whole entry partner): as the sequence (Q16531 whole entry partner) above

[3] = biological target: T3, IKZF2 (Homo sapiens, UniProt Q96SW2+Q9UKS7); experiment: Western-blot assay, substrate protein degradation in hPBMCs: IKZF2
T3 construct: effects of the compounds of the present disclosure on the expression of target proteins in cells; endogenous in cells; host or cells: human PBMCs (hPBMCs)
T3 sequence (Q9UKS7 whole entry): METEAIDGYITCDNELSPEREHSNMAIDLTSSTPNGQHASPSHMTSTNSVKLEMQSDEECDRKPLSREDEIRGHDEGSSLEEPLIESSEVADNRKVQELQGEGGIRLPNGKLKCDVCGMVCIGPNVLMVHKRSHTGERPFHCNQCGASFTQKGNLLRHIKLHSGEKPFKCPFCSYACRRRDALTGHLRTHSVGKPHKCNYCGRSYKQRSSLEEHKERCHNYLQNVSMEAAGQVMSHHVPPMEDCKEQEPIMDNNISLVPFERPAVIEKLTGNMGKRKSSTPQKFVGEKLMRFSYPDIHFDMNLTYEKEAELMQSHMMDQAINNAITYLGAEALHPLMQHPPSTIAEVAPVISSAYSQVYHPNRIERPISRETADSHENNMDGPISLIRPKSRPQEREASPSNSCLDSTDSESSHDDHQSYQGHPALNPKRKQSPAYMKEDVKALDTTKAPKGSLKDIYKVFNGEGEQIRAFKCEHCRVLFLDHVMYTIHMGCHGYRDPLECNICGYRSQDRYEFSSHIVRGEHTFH
T3 sequence (Q96SW2 whole entry): as the sequence (Q96SW2 whole entry) above
T3 sequence (Q16531 whole entry partner): as the sequence (Q16531 whole entry partner) above

[4] = biological target: T4, IKZF3 (Homo sapiens, UniProt Q96SW2+Q9UKT9); experiment: Western-blot assay, substrate protein degradation in hPBMCs: IKZF3
T4 construct: effects of the compounds of the present disclosure on the expression of target proteins in cells; endogenous in cells; host or cells: human PBMCs (hPBMCs)

[5] = biological target: T5, CK1α (Homo sapiens, UniProt P48729+Q96SW2); experiment: Western-blot assay, substrate protein degradation in hPBMCs: CK1α
T5 construct: effects of the compounds of the present disclosure on the expression of target proteins in cells; endogenous in cells; host or cells: human PBMCs (hPBMCs)
T5 sequence (P48729 whole entry): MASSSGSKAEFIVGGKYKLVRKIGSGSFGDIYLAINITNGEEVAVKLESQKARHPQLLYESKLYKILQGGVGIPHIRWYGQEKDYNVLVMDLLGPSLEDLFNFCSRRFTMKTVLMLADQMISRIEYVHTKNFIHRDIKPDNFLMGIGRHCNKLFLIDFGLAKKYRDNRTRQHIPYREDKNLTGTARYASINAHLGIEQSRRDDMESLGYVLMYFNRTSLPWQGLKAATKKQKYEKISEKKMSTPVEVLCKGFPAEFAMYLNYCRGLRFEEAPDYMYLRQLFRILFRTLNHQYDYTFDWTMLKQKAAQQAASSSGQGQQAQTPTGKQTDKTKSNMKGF
T5 sequence (Q96SW2 whole entry): as the sequence (Q96SW2 whole entry) above
T5 sequence (Q16531 whole entry partner): as the sequence (Q16531 whole entry partner) above

[6] = biological target: T6, GSPT1 (Homo sapiens, UniProt P15170+Q96SW2); experiment: Western-blot assay, substrate protein degradation in hPBMCs: GSPT1
T6 construct: effects of the compounds of the present disclosure on the expression of target proteins in cells; endogenous in cells; host or cells: human PBMCs (hPBMCs)
T6 sequence (P15170 whole entry): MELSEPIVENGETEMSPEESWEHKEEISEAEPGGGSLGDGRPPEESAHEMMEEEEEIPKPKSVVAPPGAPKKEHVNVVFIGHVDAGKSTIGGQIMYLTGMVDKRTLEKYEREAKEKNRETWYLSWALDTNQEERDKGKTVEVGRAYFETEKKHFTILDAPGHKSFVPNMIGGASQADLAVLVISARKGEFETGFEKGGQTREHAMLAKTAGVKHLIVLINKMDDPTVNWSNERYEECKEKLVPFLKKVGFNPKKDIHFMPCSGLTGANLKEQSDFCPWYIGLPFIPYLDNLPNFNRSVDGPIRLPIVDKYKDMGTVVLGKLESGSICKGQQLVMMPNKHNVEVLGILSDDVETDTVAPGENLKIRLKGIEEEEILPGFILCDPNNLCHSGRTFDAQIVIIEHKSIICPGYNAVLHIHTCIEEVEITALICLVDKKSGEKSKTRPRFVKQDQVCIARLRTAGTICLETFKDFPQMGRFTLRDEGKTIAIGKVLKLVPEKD
T6 sequence (Q96SW2 whole entry): as the sequence (Q96SW2 whole entry) above
T6 sequence (Q16531 whole entry partner): as the sequence (Q16531 whole entry partner) above

Compound	substrate protein remaining % WEE1 [1]	substrate protein remaining % IKZF1 [2]	substrate protein remaining % IKZF2 [3]	substrate protein remaining % IKZF3 [4]	substrate protein remaining % CK1α [5]	substrate protein remaining % GSPT1 [6]
O=C1CCN(N2C(=O)c3ccc(CN4CCC(c5ccnc(F)c5F)CC4)cc3C2=O)C(=O)N1 [GT-07493, 5-((4-(2,3-difluoropyridin-4-yl)piperidin-1-yl)methyl)-2-(2,4-dioxotetrahydropyrimidin-1(2H)-yl)isoindoline-1,3-dione]	B (80%< substrate protein remaining %≤ 100%)	B (80%< substrate protein remaining %≤ 100%)	B (80%< substrate protein remaining %≤ 100%)	A (0% ≤ substrate protein remaining % ≤ 80%)	A (0% ≤ substrate protein remaining % ≤ 80%)	B (80%< substrate protein remaining %≤ 100%)
O=C1CCN(N2C(=O)c3ccc(CN4CC=C(c5ccnc(F)c5F)CC4)cc3C2=O)C(=O)N1 [GT-07494, 5-((2',3'-difluoro-3,6-dihydro-[4,4'-bipyridin]-1(2H)-yl)methyl)-2-(2,4-dioxotetrahydropyrimidin-1(2H)-yl)isoindoline-1,3-dione]	A (0% ≤ substrate protein remaining % ≤ 80%)	B (80%< substrate protein remaining %≤ 100%)	B (80%< substrate protein remaining %≤ 100%)	B (80%< substrate protein remaining %≤ 100%)	A (0% ≤ substrate protein remaining % ≤ 80%)	B (80%< substrate protein remaining %≤ 100%)
O=C1CCN(N2Cc3cc(CN4CCC(c5ccon5)CC4)ccc3C2=O)C(=O)N1 [GT-07495, 1-(5-((4-(isoxazol-3-yl)piperidin-1-yl)methyl)-1-oxoisoindolin-2-yl)dihydropyrimidine-2,4(1H,3H)-dione]	B (80%< substrate protein remaining %≤ 100%)	B (80%< substrate protein remaining %≤ 100%)	B (80%< substrate protein remaining %≤ 100%)	B (80%< substrate protein remaining %≤ 100%)	A (0% ≤ substrate protein remaining % ≤ 80%)	A (0% ≤ substrate protein remaining % ≤ 80%)
O=C1CCN(N2Cc3cc(CN4CCN(c5noc6cc(F)ccc56)CC4)ccc3C2=O)C(=O)N1 [GT-07496, 1-(5-((4-(6-fluorobenzo[d]isoxazol-3-yl)piperazin-1-yl)methyl)-1-oxoisoindolin-2-yl)dihydropyrimidine-2,4(1H,3H)-dione]	B (80%< substrate protein remaining %≤ 100%)	B (80%< substrate protein remaining %≤ 100%)	B (80%< substrate protein remaining %≤ 100%)	B (80%< substrate protein remaining %≤ 100%)	A (0% ≤ substrate protein remaining % ≤ 80%)	A (0% ≤ substrate protein remaining % ≤ 80%)
O=C1CCN(N2Cc3cc(CN4CCN(c5noc6ccncc56)CC4)ccc3C2=O)C(=O)N1 [GT-07497, 1-(5-((4-(isoxazolo[4,5-c]pyridin-3-yl)piperazin-1-yl)methyl)-1-oxoisoindolin-2-yl)dihydropyrimidine-2,4(1H,3H)-dione]	A (0% ≤ substrate protein remaining % ≤ 80%)	A (0% ≤ substrate protein remaining % ≤ 80%)	A (0% ≤ substrate protein remaining % ≤ 80%)	B (80%< substrate protein remaining %≤ 100%)	A (0% ≤ substrate protein remaining % ≤ 80%)	A (0% ≤ substrate protein remaining % ≤ 80%)
